Results taken from US4661513A, “3-aminopropoxyphenyl derivatives, their preparation and pharmaceutical compositions containing them” (Louis; William John, priority 1982, dated 1987).

Tests used:
[1] = tested on: β-adrenoceptor (guinea pig atrium); test: spontaneously beating guinea pig atrium test: inhibition of the positive chronotropic isoprenaline effect; details: β-adrenoceptor blocking activity, vs isoprenaline
[2] = tested on: tracheal preparations (guinea pig trachea); test: in vitro tracheal preparations of the guinea pig, relaxation under isoproterenol
[3] = at concentrations as high as 1×10^-4 M

`COCCc1ccc(OCC(O)CNCCNC(=O)C2CCOCC2)cc1` (centres unmarked) [Example 3] was tested, and the “Guinea pig atrium test Effective dose (molar concentration)” value (shortened to “Guinea pig atrium test Effective dose”) [1] was 200 nM.
With `COCCc1ccc(OCC(O)CNCCNC(=O)C2CCCOC2)cc1` (centres unmarked) [Example 1, 1-[4-(2-Methoxyethyl)phenoxy]-3-[2-(tetrahydropyran-3-ylcarbonylamino)ethylamino]-2-propanol] the “effect in the trachea” value ([2]; at concentrations as high as 2×10^-5 M) was “no effect”.
For `COCCc1ccc(OCC(O)CNCCNC(=O)C2CCCOC2)c(Br)c1` (centres unmarked) [Example 8], the “Guinea pig atrium test Effective dose” value [1] was 80 nM.
`O=C(NCCCNCC(O)COc1ccc(OCCOCC2CC2)cc1)C1CCOCC1` (centres unmarked) [Example 12] was tested, and the “Guinea pig atrium test Effective dose” value [1] was 3000 nM.
In the case of `O=C(NCCNCC(O)COc1ccc(OCCOCC2CC2)cc1)C1CCOCC1` (centres unmarked) [Example 11], the “effect in the trachea” value [2, 3] is reported as “no effect” and the “Guinea pig atrium test Effective dose” value [1] is reported as 200 nM.
In the case of `COCCc1ccc(OCC(O)CNCCNC(=O)C2CCOCC2)c(C#N)c1` (centres unmarked) [Example 7], the “Guinea pig atrium test Effective dose” value [1] is reported as 80 nM.
`O=C(NCCNCC(O)COc1ccc(OCCOCC2CC2)cc1)C1CCCOC1` (centres unmarked) [Example 10] was tested, and the “effect in the trachea” value [2, 3] was “no effect”.
With `COCCOc1ccc(OCC(O)CNCCNC(=O)C2CCOCC2)cc1` (centres unmarked) [Example 6] the “effect in the trachea” value [2, 3] was “no effect” and the “Guinea pig atrium test Effective dose” value [1] was 400 nM.
`COCCc1ccc(OCC(O)CNCCNC(=O)C2CCCOC2)c(C#N)c1` (centres unmarked) [Example 9] was tested, and the “Guinea pig atrium test Effective dose” value [1] was 300 nM.
